Reference: US20230094076A1, “COMBINATION THERAPY” (GlaxoSmithKline Intellectual Property Development Limited, priority 2016, published 2023)

System: AML cell lines
Assay: Preliminary RNA-seq studies
Type: cell-based
Settings: chemokines, cytokines, interferons, interleukins
From the text: PRMT1 has been implicated in immune regulation through modulation of the TLR receptor signaling pathway, whereby PRMT1 knock-down results in increased expression of pro-inflammatory molecules (Tikhanovich, I. et al. Dynamic Arginine Methylation of Tumor Necrosis Factor (TNF) Receptor-associated Factor 6 Regulates Toll-like Receptor Signaling. J Biol Chem 290, 22236-22249, doi:10.1074.jbc.M115.653543 (2015)).

CNCCN(C)Cc1c[nH]nc1[C@H]1CC[C@@]2(CC1)CC(C)(C)CO2 [Compound D]
expression of immune response gene families: altered expression
